Data from patent publication US6436682B1, “Luciferases, fluorescent proteins, nucleic acids encoding the luciferases and fluorescent proteins and the use thereof in diagnostics, high throughput screening and novelty items” (Prolume, Ltd., priority 1998, dated 2002).
Like-named read-outs stand apart in the source and are kept apart here.

T1: Renilla luciferase (Renilla reniformis, UniProt P27652)
T1 sequence (P27652 1-311): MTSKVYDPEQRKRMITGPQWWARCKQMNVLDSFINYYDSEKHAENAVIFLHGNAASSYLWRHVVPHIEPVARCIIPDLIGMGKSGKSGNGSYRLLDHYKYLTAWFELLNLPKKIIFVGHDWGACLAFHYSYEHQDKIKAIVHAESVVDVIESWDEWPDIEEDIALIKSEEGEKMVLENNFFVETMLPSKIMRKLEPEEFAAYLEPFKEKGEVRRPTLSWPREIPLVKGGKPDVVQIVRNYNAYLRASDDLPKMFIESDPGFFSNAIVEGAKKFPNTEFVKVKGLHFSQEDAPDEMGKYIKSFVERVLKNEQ

B1: Renilla mulleri GFP: green fluorescent protein of Renilla mulleri, 238 amino acids, SEQ ID No. 16 (protein, listed as Renilla mulleri)
chain: MSKQILKNTCLQEVMSYKVNLEGIVNNHVFTMEGCGKGNILFGNQLVQIRVTKGAPLPFAFDIVSPAFQYGNRTFTKYPNDISDYFIQSFPAGFMYERTLRYEDGGLVEIRSDINLIEDKFVYRVEYKGSNFPDDGPVMQKTILGIEPSFEAMYMNNGVLVGEVILVYKLNSGKYYSCHMKTLMKSKGVVKEFPSYHFIQHRLEKTYVEDGGFVEQHETAIAQMTSIGKPLGSLHEWV
modifications: Renilla mulleri Green Fluorescent Protein (GFP)

Assays:
[1] = molecular target: T1, Renilla luciferase; conditions: cited from earlier work
[2] = tested on: mice; experiment: Repeated i.p. administration, gross signs of toxicity in behavior; assay type: in vivo; conditions: 1 mg/kg i.p., daily administration for three days
Protocol: […] Mice are examined over the course of the study for any gross signs of toxicity as evidenced in their behavior. At the end of the one-week period, blood is collected by cardiac puncture immediately prior to sacrifice. Animals are sacrificed and ten different tissue samples are removed post mortem from each animal. Isolated tissues are fixed, stained, blocked and sectioned. The pathology of the tissue samples are analyzed and the toxicology data are compiled.

[3] = assay type: physicochemical
Description: Coelenterazine is not terribly soluble in non-irritant vehicles. Coelenterazine is soluble to at least to a concentration of 200 micrograms/mL in a solution of 2% (w/v) PEG 400 containing about 0.8% (w/v) NaCl. Although this solution is slightly hypertonic, it is not an irritant for vehicle purposes.

[4] = tested on: HeLa cells; experiment: Functional expression of Renilla mulleri GFP in mammalian cells; assay type: cell-based; conditions: 30 micrograms pcDNA-Renilla mulleri GFP DNA, 37° C., 8 hours, CMV promoter
Description: HeLa cells were transfected with the plasmid pcDNA3.1(+) containing Renilla mulleri GFP under the control of a CMV promoter (construct No. B(1) as described above). […]
The fluorescence was localized to pairs of cells that were undergoing, or apparently had recently undergone, a single round of cell-division. […] This is in contrast to the Aequorea GFP, which folds inefficiently into a functional form under the physiological conditions.
Filters (470/40 excitation filter, 495 excitation dichroic filter and 525/50 emission filter) used in visualization of R. mulleri GFP fluorescence in HeLa cells were the Endo GFP filter set sold by Chroma.

[5] = Renilla luciferase, in the presence of Renilla GFP
[6] = Renilla luciferase, without GFP

Molecule | bioluminescence quantum yield [1, 5] [%] | bioluminescence quantum yield [1, 6] | peak of emitted light ([1]; luciferase, upon addition of GFP) [nm] | increase in the amount of light emitted upon addition of GFP ([1]; Renilla luciferase, with versus without GFP) | gross behavior changes [2] | solubility [3] [micrograms/mL] | fluorescence of transfected cells [4]
O=C(Cc1ccc(O)cc1)NC1N=CC(c2ccccc2)=NC1Cc1ccccc1 (stereo not drawn) [coelenterazine of formula (V)] | 2.3 | about 0.012% | 509 |  |  |  | 
coelenterazine | 13 | 6.9% |  | nearly two-fold | no gross behavior changes | ≥ 200 | 
B1 |  |  |  |  |  |  | highly fluorescent
